Values joined by “and” are separate entries in the source; they are usually repeats but may differ in a detail not shown here. Equal values may be shown once. “Also recorded” adds a separate entry of the source. Read-outs that look alike come from different tables or passages of the source. Values belong to the molecule of their own block, whether it stands above or below them.
What was measured:
[1] = target: T1, Recombinant human GCPII enzyme (Homo sapiens (Human), UniProt Q04609); test: GCPII activity assay (IC50, radiolabelled NAAG hydrolysis); type: biochemical; conditions: for GCPII inhibitory potency (in words): SAR of L-DOPA analogs
[2] = Pharmacokinetics of D-DOPA in mouse plasma and brain (IV, PO, IN; Example 1); type: in vivo, CD1 mice; conditions: for Kp: brain/plasma, read-out: AUCBrain/Plasma (brain penetration index)
[3] = target: GCPII activity in the brain (Mus musculus (Mouse), UniProt O35409); test: GCPII target engagement: GCPII activity in brain after dosing; type: in vivo, CD1 mouse
[4] = Time-dependent PK of D-DOPA with or without sodium benzoate (Example 2); type: in vivo, CD-1 mice
Experimental: All of the formulations were freshly prepared prior to the dosing. […] Tissue and plasma collection were carried out as described above. […] Van […] et al., 2020; Wang et al., 2015. While D-/L-DOPA required derivatization with acetic anhydride, caffeic acid was analyzed using a single step protein precipitation method. […] Plasma and brain tissue samples were processed by matching the dilutions of calibration standards of the respective tissue. […] The solutions were vortexed for 15 secs and then allowed to sit at room temperature for 45 mins. These mixtures were vortexed again for 10 sec and centrifuged at 10,000 g for 10 mins to collect the supernatant. A 50 μL aliquot of the supernatant was transferred to 250 μL polypropylene autosampler vials sealed with Teflon caps. 2 μL of the sample was injected into the LC/MS/MS system for analysis. Chromatographic analysis was performed using Thermo Scientific Vanquish UPLC system consisting of an analytical pump and an autosampler coupled with a […] spectrometer. For all analytes, the mobile phase used for the chromatographic separation composed of 0.1% formic acid in acetonitrile and 0.1% formic acid in water delivered as a gradient while pumping a flow rate of 0.400 mL/min. […] The analyte was monitored using ThermoScientific […] triple-quadrupole mass-spectrometric detector equipped with an electrospray interface, and operated in negative ion mode. The instrument was controlled by Thermo Scientific Xcalibur (version 4.2.47) software. […] Plasma concentrations (nmol/mL) and brain tissue concentrations (nmol/g) were determined and plots of mean plasma or brain concentrations versus time were constructed.

[5] = Mouse two-point oral pharmacokinetic screening; parameters: species or system CD-1 mice; conditions: in vivo, 50 mg/kg
Experimental: Male CD-1 mice between 25-30 g were obtained from Harlan and maintained on a 12 h light-dark cycle with ad libitum access to food and water. […] All of the formulations were freshly prepared prior to the dosing. […] For the collection of plasma and brain tissue, animals were euthanized with CO2, and blood samples were collected in heparinized microtubes by cardiac puncture. Brains were dissected and immediately flash frozen (-80° C.). […] Van […] et al., 2020; Wang et al., 2015. While D-/L-DOPA required derivatization with acetic anhydride, caffeic acid was analyzed using a single step protein precipitation method. […] Plasma and brain tissue samples were processed by matching the dilutions of calibration standards of the respective tissue. […] The solutions were vortexed for 15 secs and then allowed to sit at room temperature for 45 mins. These mixtures were vortexed again for 10 sec and centrifuged at 10,000 g for 10 mins to collect the supernatant. A 50 μL aliquot of the supernatant was transferred to 250 μL polypropylene autosampler vials sealed with Teflon caps. 2 μL of the sample was injected into the LC/MS/MS system for analysis. […] Then, 2 μL of the sample was analyzed using LC/MS/MS system as mentioned above. Plasma concentrations (nmol/mL) and brain tissue concentrations (nmol/g) were determined and plots of mean plasma or brain concentrations versus time were constructed.

[6] = In vitro metabolic stability in mouse plasma and brain homogenate; type: in vitro ADME; conditions: 10 μM, 1 h
Experimental: Zimmermann et al., 2018. For the brain homogenates, washed tissues were diluted 10-fold in 0.1 M potassium phosphate buffer and homogenized using a probe sonicator. Crude homogenate and plasma were aliquoted to 1 mL and spiked with a final assay concentration of 10 μM of the respective catechol followed by incubation in an orbital shaker at 37° C. for 1 h (in triplicate). An aliquot from each incubated homogenate was quenched with three volumes of acetonitrile containing the internal standard (IS; losartan: […]) at predetermined time points (0, 30, 60 min). Samples were vortex-mixed for 30 secs and centrifuged at 10,000×g for 10 min at 4° C.
Disappearance of respective catechol was monitored on a Dionex Ultimate 3000 ultra-high-performance LC system coupled with Q Exactive Focus orbitrap mass spectrometer (Thermo Fisher Scientific Inc., Waltham MA). The separation of analytes was achieved using the Agilent Eclipse Plus column (100×2.1 mm i.d.; maintained at 35° C.) packed with a 1.8 μm C18 stationary phase. The mobile phase consisted of 0.1% formic acid in water and 0.1% formic acid in acetonitrile. Pumps were operated at a flow rate of 0.4 mL/min for 9 min using gradient elution. […] Quantification of the compounds was performed in the full-scan mode (from m/z 50 to 1600) by comparing t=0 samples with t=30- and 60-min samples.

[7] = Solubility of D-DOPA in intranasal dosing vehicle; type: physicochemical
[8] = target: T1, Recombinant human GCPII enzyme; conditions: NAAG saturation, D-DOPA 0-400 nM
[9] = target: T1, Recombinant human GCPII enzyme; test: biochemical
[10] = Table 1, catechol scaffolds for GCPII inhibition
[11] = Table 2-1, human recombinant GCPII
[12] = PO 50 mg/kg + sodium benzoate 400 mg/kg IP, brain

T1 sequence (Q04609 whole entry): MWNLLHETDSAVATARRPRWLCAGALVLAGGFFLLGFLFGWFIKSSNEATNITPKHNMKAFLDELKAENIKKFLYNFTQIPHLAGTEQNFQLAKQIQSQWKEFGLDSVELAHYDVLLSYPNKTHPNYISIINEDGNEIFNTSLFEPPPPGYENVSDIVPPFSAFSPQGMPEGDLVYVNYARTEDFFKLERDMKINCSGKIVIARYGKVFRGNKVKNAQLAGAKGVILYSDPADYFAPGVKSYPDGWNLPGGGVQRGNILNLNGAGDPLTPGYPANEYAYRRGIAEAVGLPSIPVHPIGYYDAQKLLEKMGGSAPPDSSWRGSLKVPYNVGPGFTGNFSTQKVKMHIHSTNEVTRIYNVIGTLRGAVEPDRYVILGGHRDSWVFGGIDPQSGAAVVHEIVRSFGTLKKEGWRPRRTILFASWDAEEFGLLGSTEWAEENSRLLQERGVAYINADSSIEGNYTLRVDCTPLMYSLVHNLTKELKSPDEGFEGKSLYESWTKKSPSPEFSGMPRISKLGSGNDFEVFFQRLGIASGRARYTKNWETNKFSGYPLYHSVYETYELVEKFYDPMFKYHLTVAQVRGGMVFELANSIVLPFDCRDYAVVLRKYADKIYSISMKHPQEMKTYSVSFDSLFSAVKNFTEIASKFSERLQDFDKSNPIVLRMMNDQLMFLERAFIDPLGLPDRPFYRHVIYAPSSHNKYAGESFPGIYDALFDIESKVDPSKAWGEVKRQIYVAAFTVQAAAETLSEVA
Sequence of GCPII activity in the brain (O35409 whole entry): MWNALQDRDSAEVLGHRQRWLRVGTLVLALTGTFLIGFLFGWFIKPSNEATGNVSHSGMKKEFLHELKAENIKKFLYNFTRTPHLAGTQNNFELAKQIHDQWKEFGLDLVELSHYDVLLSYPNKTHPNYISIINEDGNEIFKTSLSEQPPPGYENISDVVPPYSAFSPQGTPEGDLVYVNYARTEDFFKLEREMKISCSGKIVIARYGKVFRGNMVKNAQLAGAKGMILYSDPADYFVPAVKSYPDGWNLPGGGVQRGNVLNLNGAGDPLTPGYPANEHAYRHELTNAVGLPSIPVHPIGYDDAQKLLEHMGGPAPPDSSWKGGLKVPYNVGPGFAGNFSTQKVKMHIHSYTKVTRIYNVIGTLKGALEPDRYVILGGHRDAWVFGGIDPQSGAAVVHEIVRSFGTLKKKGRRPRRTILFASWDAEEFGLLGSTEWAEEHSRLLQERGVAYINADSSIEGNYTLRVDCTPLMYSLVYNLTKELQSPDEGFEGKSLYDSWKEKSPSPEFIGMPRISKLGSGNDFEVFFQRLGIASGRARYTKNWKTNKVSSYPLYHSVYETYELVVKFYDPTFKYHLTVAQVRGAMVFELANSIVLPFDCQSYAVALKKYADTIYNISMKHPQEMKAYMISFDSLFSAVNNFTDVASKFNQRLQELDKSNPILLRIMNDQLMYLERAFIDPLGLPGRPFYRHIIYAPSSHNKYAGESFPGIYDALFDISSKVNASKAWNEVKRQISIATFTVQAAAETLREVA

Structure (SMILES): O=C(O)/C=C/c1ccc(O)c(O)c1 [Caffeic acid]
IC50 ([1]; GCPII): 300 nM
GCPII inhibitory potency (in words) [1]: sub-micromolar potencies
IC50 [1, 10]: 100 nM

Structure (SMILES): N[C@@H](Cc1ccc(O)cc1)C(=O)O [Compound 2-2, Tyr]
GCPII inhibitory potency (in words) [1]: substantial loss of potency
IC50 [1, 11]: 100000 nM

Structure (SMILES): N[C@H](Cc1ccc(O)c(O)c1)C(=O)O [D-DOPA, D-3,4-dihydroxyphenylalanine]
IC50 ([1]; GCPII): 200 nM
GCPII inhibitory potency (in words) [1]: sub-micromolar potencies
Kp ([2]; CD1, mouse, other: intranasal, 3.4 mg/kg, IN 3.4 mg/kg): 0.051
Kp ([2]; CD1, mouse, po, 30 mg/kg, PO 30 mg/kg): < 0.05
Cmax ([2]; CD1, mouse, inhaled or intranasal, IN 3.4 mg/kg, plasma, read-out: Cmax): 4.45 ± 0.971 µM
AUC0-t ([2]; CD1, mouse, plasma, inhaled or intranasal, 3.4 mg/kg, IN 3.4 mg/kg, plasma, read-out: AUC0-t): 2.7 ± 0.508 µM·h
AUC0-t ([2]; CD1, mouse, plasma, iv, 10 mg/kg, IV 10 mg/kg, plasma, read-out: AUC0-t): 30.5 ± 2.04 µM·h
Tmax ([2]; CD1, mouse, plasma, iv, 10 mg/kg, IV 10 mg/kg, plasma, read-out: Tmax): ≤ 0.0833 h
Tmax ([2]; CD1, mouse, plasma, iv, 10 mg/kg, IV 10 mg/kg, plasma, read-out: Tmax (h)): 0.0833 h
bioavailability ([2]; CD1, mouse, plasma, PO 30 mg/kg vs IV 10 mg/kg, read-out: Bioavailability (% F)): 36%
Cmax ([2]; CD1, mouse, PO 30 mg/kg, plasma, read-out: Cmax): 43.1 ± 2.58 µM
AUC0-t ([2]; IN 3.4 mg/kg, brain): 0.139 ± 0.0268 nmol·h/g
Cmax ([2]; IN 3.4 mg/kg, brain): 0.102 ± 0.00823 nmol/g
Tmax ([2]; IN 3.4 mg/kg, plasma): 0.250 h
AUC0-t ([2]; PO 30 mg/kg, brain): 1.09 ± 0.103 nmol·h/g
Cmax ([2]; PO 30 mg/kg, brain): 0.472 ± 0.124 nmol/g
AUC0-t ([2]; PO 30 mg/kg, plasma): 32.92 ± 0.731 µM·h
Cmax ([2]; mouse, IV 10 mg/kg, plasma, CD1 mice, read-out: Cmax): 61.1 ± 5.09 µM
GCPII activity in brain (cortex) ([3]; PO 30 mg/kg, 1 h post dose): significant inhibition of GCPII activity
GCPII activity in brain ([3]; PO 50 mg/kg + sodium benzoate 400 mg/kg IP, 30 min): significantly outperformed D-DOPA alone; also recorded: significant inhibition of GCPII activity; also recorded: significantly outperformed D-DOPA mono-therapy
GCPII activity in brain ([3]; PO 50 mg/kg monotherapy, 30 min, vs untreated): significant inhibition of GCPII activity
GCPII activity in brain ([3]; intranasal dosing): insufficient exposures to the brain to affect GCP II activity
Kp ([4]; CD-1, mouse, brain/plasma, PO 50 mg/kg + sodium benzoate 400 mg/kg IP, read-out: brain penetration index): 0.03
AUC ([4]; CD-1, mouse, plasma, iv, 10 mg/kg, IV 10 mg/kg, plasma, read-out: AUCIV): 30.5 µM·h
AUC ([4]; CD-1, mouse, plasma, oral, PO 50 mg/kg + sodium benzoate 400 mg/kg IP, plasma, read-out: AUCPlasma): 185 µM·h
AUC ([4]; CD-1, mouse, plasma, po, 50 mg/kg, PO 50 mg/kg + sodium benzoate 400 mg/kg IP, plasma, read-out: AUCPlasma): 185 µM·h
AUC ([4]; CD-1, mouse, plasma, po, 50 mg/kg, PO 50 mg/kg monotherapy, plasma, read-out: AUCPO-plasma): 72.7 µM·h
Cmax ([4]; CD-1, mouse, PO 50 mg/kg monotherapy, brain, read-out: Cmax): 1.74 µM
time brain levels stayed >IC50 value of 0.2 μM ([4]; PO 50 mg/kg + sodium benzoate 400 mg/kg IP): over 3 h
AUCBrain [4, 12]: 5.48 nmol·h/g
Cmax [4, 12]: 3.2 nmol/g and 3.20 nmol/g
Cmax ([4]; PO 50 mg/kg + sodium benzoate 400 mg/kg IP, plasma, read-out: Cmax): 151 µM
time brain concentrations were >IC50 ([4]; PO 50 mg/kg monotherapy): up to 1 h
AUCPO-Brain ([4]; PO 50 mg/kg monotherapy, brain): 2.42 nmol·h/g
Cmax ([4]; PO 50 mg/kg monotherapy, brain): 1.74 nmol/g
Tmax ([4]; PO 50 mg/kg monotherapy, brain): 30 min
oral bioavailability (AUCPO/IV) ([4]; PO 50 mg/kg vs IV 10 mg/kg): 47.7%
enhancement in both plasma and brain exposures ([4]; combination with sodium benzoate vs D-DOPA alone): > 200%
plasma and brain exposure (in words) [5]: higher plasma and brain exposure
metabolic stability (in words) [6]: good metabolic stability; also recorded: superior in vitro stability
solubility in vehicle [7]: poor solubility
mode of inhibition [8]: noncompetitive, allosteric inhibitor of GCPII
Ki [9]: ~400 nM

Structure (SMILES): N[C@@H](Cc1ccc(O)c(O)c1)C(=O)O [L-DOPA]
GCPII inhibitory potency (in words) [1]: sub-micromolar potencies; also recorded: submicromolar inhibitor of GCPII
IC50 [1, 10]: 400 nM
IC50 [1, 11]: 600 nM

Other lines, results leading:

GCPII inhibitory potency (in words) [1]: substantial loss of potency
IC50 [1, 11]: > 100000 nM
Structure (SMILES): COc1ccc(C[C@H](N)C(=O)O)cc1OC [Compound 2-3]

GCPII inhibitory potency (in words) [1]: complete loss of potency
IC50 [1, 11]: > 100000 nM
Structure (SMILES): NC(Cc1ccc(=O)n(O)c1)C(=O)O (stereo not drawn) [Compound 2-4]

GCPII inhibitory potency (in words) [1]: loss of potency
IC50 [1, 11]: > 100000 nM
Structure (SMILES): C[C@](N)(Cc1ccc(O)c(O)c1)C(=O)O [Compound 2-5]

GCPII inhibitory potency (in words) [1]: loss of potency
IC50 [1, 11]: 20000 nM
Structure (SMILES): CC(=O)N[C@@H](Cc1ccc(O)c(O)c1)C(=O)O [Compound 2-6]

GCPII inhibitory potency (in words) [1]: loss of potency
IC50 [1, 11]: > 100000 nM
Structure (SMILES): NCCc1ccc(O)c(O)c1 [Compound 2-7, Dopamine]

IC50 [1, 11]: 4000 nM
decrease in inhibitory potency ([1]; relative to L-DOPA): 6.7 fold
Structure (SMILES): O=C(O)CCc1ccc(O)c(O)c1 [Compound 2-8]

Source: patent US20240415800A1, “DOPA AND CAFFEIC ACID ANALOGS AS NOVEL GCPII INHIBITORS” (The Johns Hopkins University, priority 2021, published 2024)
